Assay [1] concerns the target T1, Human M4 (Homo sapiens, UniProt P08173).
T1 construct: expressed in transfected cells; host or cells: CHO-K1 (ATCC), stably co-expressing chimeric G protein Gqi5
T1 sequence (P08173 1-479): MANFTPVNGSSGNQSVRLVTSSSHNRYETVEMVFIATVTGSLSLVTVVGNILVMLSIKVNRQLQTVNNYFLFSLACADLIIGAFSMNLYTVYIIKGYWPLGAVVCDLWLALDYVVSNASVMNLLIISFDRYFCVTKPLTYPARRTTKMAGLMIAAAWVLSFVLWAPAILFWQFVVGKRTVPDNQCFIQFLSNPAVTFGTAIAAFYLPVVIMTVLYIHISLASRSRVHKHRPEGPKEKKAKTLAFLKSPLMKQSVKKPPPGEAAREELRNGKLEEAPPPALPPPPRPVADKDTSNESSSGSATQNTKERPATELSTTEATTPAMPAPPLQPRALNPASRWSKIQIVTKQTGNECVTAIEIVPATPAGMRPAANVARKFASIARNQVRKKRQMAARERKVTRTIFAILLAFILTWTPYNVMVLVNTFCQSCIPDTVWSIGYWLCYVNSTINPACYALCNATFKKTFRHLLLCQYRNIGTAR
The experiment in a line: mAChR M4 cell-based functional assay (calcium flux, antagonist mode vs EC80 acetylcholine), human M4/Gqi5/CHO-K1 cells. The conditions noted are these: for remaining activity at 30 µM: CHO-K1, % ACh maximum at 30 μM, human M4, read-out: Human M4 Emin (%); for IC50: decrease of response elicited by EC80 acetylcholine, human M4/Gqi5 CHO-K1 cells. Put shortly:
(§1)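 CHO-K1 cells stably expressing human or rat M4 with Gqi5, Fluo-4 loaded; calcium measured by fluorescence ratio on FDSS. Compound added, then EC20 acetylcholine at 143 s and EC80 at 268 s; IC50 from decrease of EC80 response, four-parameter logistic fit.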
Background: Calcium flux is commonly read through the fluorescence of an indicator in the cells.

Assay [2] has as its target T2, Rat M4 (Rattus norvegicus, UniProt P08485).
T2 construct: expressed in transfected cells; host or cells: CHO-K1 (ATCC), stably co-expressing chimeric G protein Gqi5
T2 sequence (P08485 1-478): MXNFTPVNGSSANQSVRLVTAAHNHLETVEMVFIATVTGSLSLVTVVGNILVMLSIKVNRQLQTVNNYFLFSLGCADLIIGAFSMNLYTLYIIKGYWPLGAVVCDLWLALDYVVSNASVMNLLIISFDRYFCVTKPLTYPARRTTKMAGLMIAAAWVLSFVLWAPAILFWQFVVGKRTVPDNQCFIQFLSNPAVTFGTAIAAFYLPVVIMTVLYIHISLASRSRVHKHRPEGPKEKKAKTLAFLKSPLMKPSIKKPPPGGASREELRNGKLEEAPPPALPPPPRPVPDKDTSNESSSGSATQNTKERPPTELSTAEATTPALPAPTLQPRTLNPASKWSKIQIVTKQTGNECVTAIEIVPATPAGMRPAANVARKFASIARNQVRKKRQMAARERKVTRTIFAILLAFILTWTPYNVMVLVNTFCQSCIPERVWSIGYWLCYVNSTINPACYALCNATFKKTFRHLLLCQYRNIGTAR
The experiment in a line: mAChR M4 cell-based functional assay (calcium flux, antagonist mode vs EC80 acetylcholine), rat M4/Gqi5/CHO-K1 cells. The conditions noted are these: for remaining activity at 30 µM: CHO-K1, % ACh maximum at 30 μM, rat M4, read-out: Rat M4 Emin (%); for IC50: decrease of response elicited by EC80 acetylcholine, rat M4/Gqi5 CHO-K1 cells. An outline of the steps: as §1

As usually defined, the IC50 is the concentration at which inhibition is half-maximal.

`CC1(C)CC(N2C[C@H]3C[C@H](Nc4ccc(-c5ccc6nccn6c5)nn4)C[C@H]3C2)CCO1` (stereo partly drawn) [compound 21, (3aR,5s,6aS)-2-(2,2-dimethyltetrahydro-2H-pyran-4-yl)-N-(6-(imidazo[1,2-a]pyridin-6-yl)pyridazin-3-yl)octahydrocyclopenta[c]pyrrol-5-amine]: the remaining activity at 30 µM in assay [1] turned out to be 7%; in assay [2], 8%. Also, the IC50 amounted to 36.2 nM in assay [1] and 808 nM in assay [2].

For `Cc1cc(CN2C[C@H]3C[C@H](Nc4ccc([S+]([O-])c5ccccc5)nn4)C[C@H]3C2)ccc1F` (stereo partly drawn) [compound 32, (3aR,5s,6aS)-2-(4-fluoro-3-methylbenzyl)-N-(6-(phenylsulfinyl)pyridazin-3-yl)octahydrocyclopenta[c]pyrrol-5-amine], in assay [1], the remaining activity at 30 µM amounted to 3% and the IC50 was determined as 242 nM. Also, in assay [2], the remaining activity at 30 µM was found to be 3% and the IC50 amounted to 970 nM.

Regarding `O=C(Nc1ccc(F)cc1)c1ccc(N[C@H]2C[C@@H]3CN(CC4CCOCC4)C[C@@H]3C2)nn1` [compound 10, N-(4-fluorophenyl)-6-(((3aR,5s,6aS)-2-((tetrahydro-2H-pyran-4-yl)methyl)octahydrocyclopenta[c]pyrrol-5-yl)amino)pyridazine-3-carboxamide], in assay [1], the remaining activity at 30 µM was 4% and the IC50 was determined as 543 nM. For the same molecule, in assay [2], the remaining activity at 30 µM is 9% and the half-maximal inhibitory concentration (IC50) was found to be 4190 nM.

`O=S(=O)(c1ccccc1)c1ccc(N[C@H]2C[C@@H]3CN(Cc4ccccn4)C[C@@H]3C2)nn1` [compound 25, (3aR,5s,6aS)-N-(6-(phenylsulfonyl)pyridazin-3-yl)-2-(pyridin-2-ylmethyl)octahydrocyclopenta[c]pyrrol-5-amine]: the remaining activity at 30 µM in assay [1] was determined as 6%; in assay [2] it was 26%. In addition, the 50% inhibitory concentration (IC50) in assay [1] is 436 nM; in assay [2], over 10000 nM.

As to `[O-][S+](c1ccccc1)c1ccc(N[C@H]2C[C@@H]3CN(CC4CCOCC4)C[C@@H]3C2)nn1` (stereo partly drawn) [compound 28, (3aR,5s,6aS)-N-(6-(phenylsulfinyl)pyridazin-3-yl)-2-((tetrahydro-2H-pyran-4-yl)methyl)octahydrocyclopenta[c]pyrrol-5-amine], in assay [1], the remaining activity at 30 µM is 5% and the IC50 is 57.2 nM. In assay [2], the remaining activity at 30 µM is 8% and the IC50 worked out at 113 nM.

For the molecule `Fc1ccc(Cl)c(-c2ccc(N[C@H]3C[C@@H]4CN(C5CCCCCC5)C[C@@H]4C3)nn2)c1` [compound 75, (3aR,5s,6aS)-N-(6-(2-chloro-5-fluorophenyl)pyridazin-3-yl)-2-cycloheptyloctahydrocyclopenta[c]pyrrol-5-amine], in assay [1], the remaining activity at 30 µM is 2% and the IC50 is 3.2 nM. Further, in assay [2], the remaining activity at 30 µM turned out to be 3% and the half-maximal inhibitory concentration (IC50) is 41.8 nM.

`CC(=O)Nc1ccc(-c2ccc(N[C@H]3C[C@@H]4CN(C5CCOC(C)(C)C5)C[C@@H]4C3)nn2)cc1` (stereo partly drawn) [compound 20, N-(4-(6-(((3aR,5s,6aS)-2-(2,2-dimethyltetrahydro-2H-pyran-4-yl)octahydrocyclopenta[c]pyrrol-5-yl)amino)pyridazin-3-yl)phenyl)acetamide]: in assay [1], the remaining activity at 30 µM was determined as 3% and the IC50 came to 18.7 nM. Besides, in assay [2], the remaining activity at 30 µM worked out at 4% and the IC50 was 129 nM.

Turning to `C=CCN1C(=O)C(C)(C)c2cc(N[C@H]3C[C@@H]4CN(CCC(C)(C)C)C[C@@H]4C3)nnc21` [compound 71, 7-allyl-3-(((3aR,5s,6aS)-2-(3,3-dimethylbutyl)octahydrocyclopenta[c]pyrrol-5-yl)amino)-5,5-dimethyl-5,7-dihydro-6H-pyrrolo[2,3-c]pyridazin-6-one], in assay [1], the remaining activity at 30 µM came to 3% and the IC50 was 12.4 nM. For the same molecule, in assay [2], the remaining activity at 30 µM worked out at 5% and the IC50 amounted to 369 nM.

Take `CC1(C)CC(N2C[C@H]3C[C@H](Nc4ccc(-c5cc(F)ccc5Cl)nn4)C[C@H]3C2)CCO1` (stereo partly drawn) [compound 16, (3aR,5s,6aS)-N-(6-(2-chloro-5-fluorophenyl)pyridazin-3-yl)-2-(2,2-dimethyltetrahydro-2H-pyran-4-yl)octahydrocyclopenta[c]pyrrol-5-amine]: the remaining activity at 30 µM in assay [1] and in assay [2] was 4% throughout. Moreover, the IC50 in assay [1] is 1.9 nM; in assay [2] it was 97.3 nM.

With `CC1(C)CC(N2C[C@H]3C[C@H](Nc4ccc(N5CCC(F)(F)CC5)nn4)C[C@H]3C2)CCO1` (stereo partly drawn) [compound 58, (3aR,5s,6aS)-N-(6-(4,4-difluoropiperidin-1-yl)pyridazin-3-yl)-2-(2,2-dimethyltetrahydro-2H-pyran-4-yl)octahydrocyclopenta[c]pyrrol-5-amine], in assay [1], the remaining activity at 30 µM amounted to 3% and the concentration for half-maximal inhibition (IC50) was found to be 29.8 nM. Moreover, in assay [2], the remaining activity at 30 µM worked out at 6% and the IC50 amounted to 506 nM.

As to `O=S(=O)(c1ccc(N[C@H]2C[C@@H]3CN(Cc4ccc5cc[nH]c5c4)C[C@@H]3C2)nn1)C1CCCCC1` [compound 48, (3aR,5s,6aS)-2-((1H-indol-6-yl)methyl)-N-(6-(cyclohexylsulfonyl)pyridazin-3-yl)octahydrocyclopenta[c]pyrrol-5-amine], the values for the remaining activity at 30 µM in assay [1] and in assay [2] were 3% and 9%, respectively. Besides, the half-maximal inhibitory concentration (IC50) in assay [1] stood at 183 nM; in assay [2], 4540 nM.

Regarding `CC1(C)CCC(N2C[C@H]3C[C@H](Nc4ccc(-c5cc(F)ccc5Cl)nn4)C[C@H]3C2)CC1` [compound 68, (3aR,5s,6aS)-N-(6-(2-chloro-5-fluorophenyl)pyridazin-3-yl)-2-(4,4-dimethylcyclohexyl)octahydrocyclopenta[c]pyrrol-5-amine], the figures for the remaining activity at 30 µM in assay [1] and in assay [2] were 3% and 2%, respectively. In addition, the IC50 in assay [1] worked out at 2.79 nM; in assay [2] it was 102 nM.

For `O=S(=O)(c1ccccc1)c1ccc(N[C@H]2C[C@@H]3CN(Cc4ccc5c(c4)OCO5)C[C@@H]3C2)nn1` [compound 27, (3aR,5s,6aS)-2-(benzo[d][1,3]dioxol-5-ylmethyl)-N-(6-(phenylsulfonyl)pyridazin-3-yl)octahydrocyclopenta[c]pyrrol-5-amine], the remaining activity at 30 µM in assay [1] amounted to 2%; in assay [2], 4%. Also, the half-maximal inhibitory concentration (IC50) in assay [1] worked out at 12.8 nM; in assay [2], 791 nM.

On to `Cn1cc2cc(-c3ccc(N[C@H]4C[C@@H]5CN(C6CCOC(C)(C)C6)C[C@@H]5C4)nn3)ccc2n1` (stereo partly drawn) [compound 63, (3aR,5s,6aS)-2-(2,2-dimethyltetrahydro-2H-pyran-4-yl)-N-(6-(2-methyl-2H-indazol-5-yl)pyridazin-3-yl)octahydrocyclopenta[c]pyrrol-5-amine], for which the remaining activity at 30 µM was 3% in assay [1] and 5% in assay [2]. Also, the IC50 in assay [1] is 9.53 nM; in assay [2], 374 nM.

For `[O-][S+](c1ccccc1)c1ccc(N[C@H]2C[C@@H]3CN(Cc4ccc5c(c4)OCO5)C[C@@H]3C2)nn1` (stereo partly drawn) [compound 30, (3aR,5s,6aS)-2-(benzo[d][1,3]dioxol-5-ylmethyl)-N-(6-(phenylsulfinyl)pyridazin-3-yl)octahydrocyclopenta[c]pyrrol-5-amine], the remaining activity at 30 µM in assay [1] and in assay [2] was 4% throughout. For the same molecule, the IC50 in assay [1] came to 7.8 nM; in assay [2] it was 196 nM.

For `Cc1cc(Br)cnc1CN1C[C@H]2C[C@H](Nc3ccc(S(=O)(=O)C4CCCCC4)nn3)C[C@H]2C1` [compound 45, (3aR,5s,6aS)-2-((5-bromo-3-methylpyridin-2-yl)methyl)-N-(6-(cyclohexylsulfonyl)pyridazin-3-yl)octahydrocyclopenta[c]pyrrol-5-amine], in assay [1], the remaining activity at 30 µM came to 4% and the half-inhibitory concentration (IC50) is 20.3 nM. In assay [2], the remaining activity at 30 µM worked out at 3% and the IC50 is 292 nM.

Source of the values: patent US20230183218A1, “CONDENSED SUBSTITUTED HYDROPYRROLES AS ANTAGONISTS OF THE MUSCARINIC ACETYLCHOLINE RECEPTOR M4” (Vanderbilt University, priority 2020, published 2023).
